Key:
[1] = for molar entropy: 101.33 kPa, Small (less than 1 g) adiabatic calorimetry
[2] = Molar enthalpy of transition or fusion

N.NS(=O)(=O)O [ammonium sulfamate]
[1]
Settings | molar entropy [J/K/mol]
5 K, Crystal 2 | 0.0002827
10 K, Crystal 2 | 0.07483
15 K, Crystal 2 | 0.4656
20 K, Crystal 2 | 1.33
25 K, Crystal 2 | 2.661
30 K, Crystal 2 | 4.49
35 K, Crystal 2 | 6.735
40 K, Crystal 2 | 9.229
45 K, Crystal 2 | 12.14
50 K, Crystal 2 | 15.13
55 K, Crystal 2 | 18.29
60 K, Crystal 2 | 21.53
65 K, Crystal 2 | 24.86
70 K, Crystal 2 | 28.35
75 K, Crystal 2 | 31.84
80 K, Crystal 2 | 35.42
90 K, Crystal 2 | 42.65
100 K, Crystal 2 | 49.97
110 K, Crystal 2 | 57.29
120 K, Crystal 2 | 64.6
130 K, Crystal 2 | 71.75
140 K, Crystal 2 | 78.82
150 K, Crystal 2 | 85.64
160 K, Crystal 2 | 92.29
170 K, Crystal 2 | 98.94
180 K, Crystal 2 | 105.59
190 K, Crystal 2 | 112.25
200 K, Crystal 2 | 118.07
210 K, Crystal 2 | 123.89
220 K, Crystal 2 | 130.54
230 K, Crystal 2 | 136.36
240 K, Crystal 2 | 141.35
260 K, Crystal 1 | 152.99
270 K, Crystal 1 | 157.97
280 K, Crystal 1 | 163.79
290 K, Crystal 1 | 168.78
298.15 K, Crystal 1 | 172.94
300 K, Crystal 1 | 173.77
310 K, Crystal 1 | 178.76
320 K, Crystal 1 | 183.75
330 K, Crystal 1 | 188.74

Settings | Molar enthalpy of transition or fusion, Crystal 1, DSC [kcal/mol] | Molar enthalpy of transition or fusion, Crystal 2, Adiabatic calorimetry [kcal/mol] | Normal melting temperature, Crystal 1, DTA [°C] | Triple point temperature, Crystal 2, Adiabatic calorimetry [K]
[1] | – | – | 133.0 | 254.5
[2] | 3.87 | 0.00287 | – | –

From the NIST ThermoML archive (doi:10.1016/j.jct.2019.01.021)
